Results on 20 molecules are retold here after ChEMBL document CHEMBL5352401, “Novel cudraisoflavone J derivatives as potent neuroprotective agents for the treatment of Parkinson's disease via the activation of Nrf2/HO-1 signaling” (Eur J Med Chem, 2022).

Assay [1] relates to PC-12. Description: Cytotoxicity in rat PC-12 cells assessed as cell viability measured at 10 to 30 uM for 24 hrs by MTT assay. The note with it: dose 10-30 µM. It counts as functional, cell-based. On the technique in general: Tetrazolium dyes change colour on reduction, which living cells bring about.
In assay [2] the test system is PC-12. Description: Neuroprotective activity against 6-OHDA-induced cytotoxicity in rat PC-12 cells at 10 to 30 uM for 4 hrs followed by exposure to 6-OHDA measured after 24 hrs by MTT assay. It counts as functional, cell-based. The note with it: dose 10-30 µM, time 28.0 hrs.
In assay [3] the test system is PC-12. Description: Neuroprotective activity against 6-OHDA-induced cytotoxicity in rat PC-12 cells at 30 uM for 4 hrs followed by exposure to 6-OHDA measured after 24 hrs by MTT assay. It counts as functional, cell-based. To be noted: time 28.0 hrs.
For assay [4], the system named is PC-12. Description: Neuroprotective activity against 6-OHDA-induced cytotoxicity in rat PC-12 cells at 0.1 to 30 uM for 4 hrs followed by exposure to 6-OHDA measured after 24 hrs by MTT assay relative to control. Format: functional. The note with it: dose 0.1-30 µM, time 28 hrs.
Assay [5] relates to PC-12. Description: Cytotoxicity in rat PC-12 cells assessed as cell viability incubated at 0.1 to 30 uM for 24 hrs by MTT assay relative to control. It counts as functional. The note with it: dose 0.1-30 µM.
Assay [6] has as its system PC-12. Description: Neuroprotective activity against 6-OHDA-induced cytotoxicity in rat PC-12 cells for 4 hrs followed by exposure to 6-OHDA measured after 24 hrs by MTT assay. Format: functional, cell-based. The note with it: dose 0.1-30 µM, time 28.0 hrs.
Assay [7] concerns PC-12. Description: Cytotoxicity in rat PC-12 cells assessed as cell viability measured at 30 uM for 24 hrs by MTT assay. Format: functional, cell-based.

SMILES strings stand for the structures. Active and inactive are the calls of the source. The calls are words filed in the database; no cut-off is given here.

As for `COc1cc(OC)cc(-c2coc3cc(O)c4c(c3c2=O)OC(C)(C)C(O)C4)c1` (stereo unspecified), the result in assay [1] and in assay [2] was inactive. In the case of `CC1(C)Oc2c(c(O)cc3occ(-c4cccc(OC(F)(F)F)c4)c(=O)c23)CC1O` (stereo unspecified), the result in assay [1] was Active. `CC1(C)Oc2c(c(O)cc3occ(-c4ccc(OC(F)(F)F)cc4)c(=O)c23)CC1O` (stereo unspecified): the outcome in assay [1] was Active.

For `COc1ccc(-c2coc3cc(O)c4c(c3c2=O)OC(C)(C)C(O)C4)c(OC)c1` (stereo unspecified), the result in assay [1] and in assay [2] was inactive. As to `CC(C)Oc1ccc(-c2coc3cc4c(c(O)c3c2=O)C=CC(C)(C)O4)cc1`, the result in assay [2] was inactive. Take `CC1(C)Oc2c(c(O)cc3occ(-c4cc(F)cc(F)c4)c(=O)c23)CC1O` (stereo unspecified): the result in assay [1] was Active. Further, the outcome in assay [2] was inactive.

Take `CC1(C)Oc2c(c(O)cc3occ(-c4cccs4)c(=O)c23)CC1O` (stereo unspecified): the result in assay [3] was inactive. Regarding `CC1(C)Oc2c(c(O)cc3occ(-c4cccc(C#N)c4)c(=O)c23)CC1O` (stereo unspecified), the outcome in assay [1] was Active. Turning to `CC1(C)Oc2c(c(O)cc3occ(-c4ccc(C(F)(F)F)cc4)c(=O)c23)CC1O` (stereo unspecified), the result in assay [1] was Active. Take `COc1ccc(-c2coc3cc(O)c4c(c3c2=O)OC(C)(C)C(O)C4)cc1OC` (stereo unspecified): the outcome in assay [1] and in assay [2] was inactive. Take `CC1(C)Oc2c(c(O)cc3occ(-c4ccc(F)cc4)c(=O)c23)CC1O` (stereo unspecified): in assay [1], the outcome was Active.

For `CC1(C)Oc2c(c(O)cc3occ(-c4ccccc4)c(=O)c23)CC1O` (stereo unspecified), the result in assay [3] and in assay [2] was Active. Also, the “inhibition (INH)” value in assay [4] stood at 49.9%. The values for the Activity in assay [5] and in assay [6] were 75% and “Dose-Dependent Effect”, respectively. The outcome in assay [1] was inactive. With `COc1ccc(-c2coc3cc(OC)c4c(c3c2=O)OC(C)(C)C(O)C4)cc1` (stereo unspecified), the result in assay [1] and in assay [2] was inactive. Consider `Cc1cc(C)cc(-c2coc3cc(O)c4c(c3c2=O)OC(C)(C)C(O)C4)c1` (stereo unspecified), for which the result in assay [3] and in assay [1] was Active. Further, the “inhibition (INH)” value in assay [4] is recorded as 45.4%. Further, the values for the Activity in assay [5] and in assay [6] were 73% and “Dose-Dependent Effect”, respectively. For `C#CCN[C@@H]1CCc2ccccc21`, the outcome in assay [1] and in assay [2] was Active.

For `COc1ccc(-c2coc3cc(O)c4c(c3c2=O)OC(C)(C)CC4)cc1`, the outcome in assay [1] was Active. In the case of `CC1(C)Oc2c(c(O)cc3occ(-c4ccncc4)c(=O)c23)CC1O` (stereo unspecified), in assay [7], the result was Active. Take `CCOc1ccc(-c2coc3cc4c(c(OCC)c3c2=O)C=CC(C)(C)O4)cc1`: in assay [7], the result was Active. Turning to `Cc1cc(-c2coc3cc(O)c4c(c3c2=O)OC(C)(C)C(O)C4)ccc1F` (stereo unspecified), the outcome in assay [1] was Active. For the same molecule, the outcome in assay [2] was inactive. Consider `CC(C)Oc1ccc(-c2coc3cc4c(c(OC(C)C)c3c2=O)C=CC(C)(C)O4)cc1`, for which, in assay [7], the result was Active.
